pIC50: −log10 of the molar value. “Also recorded” adds a separate entry of the source. Where two headings read alike, the source gives them in different places.
Key:
L1210 [1] = experiment: In vitro cytotoxic activity, L1210; format: cell-based; conditions: for pIC50: L1210 in vitro cytotoxic activity
L1210 [2] = conditions: read-out: L1210 IC50; L1210, introduction; cited from earlier work
w794 DNA = experiment: DNA alkylation, thermally-induced strand cleavage of w794 DNA; format: biochemical; conditions: 23 °C
[3] = Acid-catalyzed solvolysis at pH 3 monitored by UV; format: physicochemical; conditions: for solvolysis half-life t1/2 / solvolysis rate constant k: pH 3, 50% MeOH–buffer
w836 DNA = experiment: DNA alkylation, thermally-induced strand cleavage of w836 DNA; format: biochemical; conditions: after 24 h
Solvolysis at pH 7 = format: physicochemical
w794 and w836 duplex DNA = experiment: DNA alkylation of the simple alkylation subunits; format: biochemical; conditions: for DNA alkylation selectivity (sites): both enantiomers
[4] = pH 3; cited from earlier work

COC(=O)c1cc2c([nH]1)C(=O)C=C1N(C(=O)c3cc4cc(OC)c(OC)c(OC)c4[nH]3)CC3CC123 (single isomer, unassigned; (-)) [(−)-1, duocarmycin SA, reference compound]
pIC50 (L1210 [1]): 10.00

COC(=O)c1cc2c([nH]1)[C@@]13C[C@@H]1CN(C(=O)c1cc4cc(OC)c(OC)c(OC)c4[nH]1)C3=CC2=O [(−)-5, iso-duocarmycin SA]
pIC50 (L1210 [1]): 9.26

COC(=O)c1cc2c([nH]1)[C@@]13C[C@@H]1CN(C(=O)OC(C)(C)C)C3=CC2=O [(−)-7, N-Boc-iso-DSA]
pIC50 (L1210 [1]): 6.48

COC(=O)c1cc2c([nH]1)C(=O)C=C1N(C(=O)c3cc4cc(OC)c(OC)c(OC)c4[nH]3)CC3CC123 (stereo not shown) [Compound 1, Duocarmycin SA]
pIC50 (L1210 [2]): 11.00

COC(=O)c1cc2c([nH]1)[C@@]13C[C@@H]1CN(C(=O)c1cc4cc(OC)c(OC)c(OC)c4[nH]1)C3=CC2=O [(+)-5, iso-duocarmycin SA]
pIC50 (L1210 [1]): 10.30

O-benzyl-iso-duocarmycin SA [(+)-34]
pIC50 (L1210 [1]): 8.15

O-benzyl-iso-duocarmycin SA [(−)-34]
fold less active than duocarmycin SA (L1210 [1]; L1210): 600 fold
fold less active than iso-duocarmycin SA (L1210 [1]; L1210): 120 fold
pIC50 (L1210 [1]): 8.22
DNA alkylation efficiency relative to duocarmycin SA (1) (w794 DNA; w794, 22 h, 1 × 10^−5 M): nearly equivalent to that of 1
fold more reactive than N-Boc-iso-DSA (7) ([3]; pH 3 solvolysis): 470 fold

yatakemycin [Compound 3, reference compound]
pIC50 (L1210 [2]): 11.22 to 11.52
pIC50 (L1210 [1]): 11.22

iso-yatakemycin [(−)-6]
fold less DNA alkylation than the yatakemycin enantiomers (w836 DNA): 2–5 fold
fold less potent than the duocarmycin SA / yatakemycin series counterpart (L1210 [1]; L1210): ca. 5 fold
pIC50 (L1210 [1]): 10.52

COC(=O)c1cc2c([nH]1)[C@@]13C[C@@H]1CN(C(=O)OC(C)(C)C)C3=CC2=O [(+)-7, N-Boc-iso-DSA]
pIC50 (L1210 [1]): 7.48

COC(=O)c1cc2c([nH]1)C(=O)C=C1N(C(=O)OC(C)(C)C)CC3CC123 (single isomer, unassigned; (+)) [(+)-8, N-Boc-DSA, reference compound]
pIC50 (L1210 [1]): 8.22

COC(=O)c1cc2c([nH]1)[C@@]13C[C@@H]1CN(C(=O)c1cc4cc(OC)c(OC)c(OC)c4[nH]1)C3=CC2=O [Compound 5, iso-duocarmycin SA]
fold difference in potency, natural vs unnatural enantiomer (L1210 [1]; L1210): 10 fold
fold less potent than the duocarmycin SA / yatakemycin series counterpart (L1210 [1]; L1210): 5 fold
pIC50 (L1210 [1]): 10.30
DNA alkylation site selectivity vs duocarmycin SA counterpart (w794 DNA; w794, 48 h): alkylated the same site as its duocarmycin SA counterpart

O-benzyl-iso-duocarmycin SA [Compound 34]
solvolysis half-life t1/2 (Solvolysis at pH 7; pH 7, 50% MeOH–H2O): 0.20 h
solvolysis rate constant k (Solvolysis at pH 7; pH 7, 50% MeOH–H2O): 0.000977 s⁻¹
solvolysis half-life t1/2 [3]: 0.19 h
solvolysis rate constant k [3]: 0.001 s⁻¹
fold more reactive than N-Boc-iso-DSA (7) ([3]; pH 3 solvolysis): 470 fold

COC(=O)c1cc2c([nH]1)C(=O)C=C1N(C(=O)c3cc4cc(OC)c(OC)c(OC)c4[nH]3)CC3CC123 (single isomer, unassigned; (+)) [(+)-1, duocarmycin SA, reference compound]
pIC50 (L1210 [1]): 11.00

COC(=O)c1cc2c([nH]1)[C@@]13C[C@@H]1CN(C(=O)OC(C)(C)C)C3=CC2=O [Compound 7, N-Boc-iso-DSA]
solvolysis at pH 7 (Solvolysis at pH 7): no measurable solvolysis; also recorded: stable
fold difference in potency, natural vs unnatural enantiomer (L1210 [1]; L1210): 10 fold
fold less potent than the duocarmycin SA / yatakemycin series counterpart (L1210 [1]; L1210): 5 fold
solvolysis half-life t1/2 [3]: 89 h
solvolysis rate constant k [3]: 2.2e-06 s⁻¹
fold more reactive than N-Boc-DSA (8) ([3]; pH 3 solvolysis): 2 fold
times less efficient DNA alkylation than the full length agents (w794 and w836 duplex DNA): 10^3–10^4 times
DNA alkylation selectivity (sites) (w794 and w836 duplex DNA): 5′-AA and 5′-TA

COC(=O)c1cc2c([nH]1)C(=O)C=C1N(C(=O)OC(C)(C)C)CC3CC123 (single isomer, unassigned; (-)) [(−)-8, N-Boc-DSA, reference compound]
pIC50 (L1210 [1]): 7.22

iso-yatakemycin [(+)-6]
fold less DNA alkylation than the yatakemycin enantiomers (w836 DNA): 2–5 fold
pIC50 (L1210 [1]): 10.82

COC(=O)c1cc2c([nH]1)C(=O)C=C1N(C(=O)OC(C)(C)C)CC3CC123 (stereo not shown) [Compound 8, N-Boc-DSA, reference compound]
solvolysis half-life t1/2 [4]: 177 h
solvolysis at pH 7 (Solvolysis at pH 7): stable
times less efficient DNA alkylation than the full length agents (w794 and w836 duplex DNA): 10^3–10^4 times
DNA alkylation selectivity (sites) (w794 and w836 duplex DNA): 5′-AA and 5′-TA

Source: publication PMC2646182 (Journal of the American Chemical Society, 2009)
